Test results published in PubChem BioAssay AID1963851 (Molecular Pharmacology Branch, DTP, NCI, 2024).

Test system: 188146-221-R-J1-PDC complex spheroid viability
Test: Anticancer human tumor 188146-221-R-J1-PDC patient-derived colon adenocarcinoma cell line growth inhibition [POLQ]
Details: for IC50: curve of first compound; for viability, T/C: stronger effect = lower value
Description: Multicellular complex tumor spheroid response to Polymerase (POL) inhibitors (novobiocin, ART-558, RP6685) in combination with a variety of drugs and investigational agents in selected tumor cell lines
The POL inhibitors (novobiocin, ART-558, and RP6685) were evaluated both individually and in combination with standard of care and investigational anticancer small molecules within a complex spheroid model of solid tumors. . Complex spheroids include a stromal component modeled by human endothelial cells (HUVEC) and fibroblasts modeled by human mesenchymal stem cells (MSCs). The concentration ranges selected for each drug and investigational agent were based upon clinically achievable concentrations if the clinical Cmax of the agent was known.
Compounds. The drugs and investigational agents: novobiocin (NSC847541), ART-558 (NSC835418), RP-6685 (NSC848927), peposertib (NSC802822), ceralasertib (NSC780249), elimusertib (NSC800525), camonsertib (NSC841442), AZD-1390 (NSC803789), olaparib (NSC753686), talazoparib (NSC767125), rucaparib (NSC756644), sotorasib (NSC818433), MRTX-1133 (NSC836407), SN-38 (NSC673596), topotecan (NSC609699), epotoside (NSC141540), doxorubicin (NSC123127), gemcitabine (NSC613327), 5-fluorouracil (NSC19893), paclitaxel (NSC125973), vemurafenib (NSC761431), MSA-2 (NSC828583), SN-011 (NSC837082), adavosertib (NSC754352), prexasertib (NSC758257), carboplatin (NSC241240) and oxaliplatin (NSC266046), were obtained from the National Cancer Institute (NCI) Developmental Therapeutics Program Chemical Repository (21). The FDA-approved anticancer drug set is available from the Developmental Therapeutics Program at https://dtp.cancer.gov/organization/dscb/obtaining/. […] The stock solutions were prepared in dimethyl sulfoxide (DMSO, Sigma-Aldrich, St. Louis, MO, cat. D2650), except for the platinum compounds which were prepared in saline (Quality Biological, Gaithersburg, MD, cat. 114-055-101), at 800-fold the tested concentration and stored at -70 degrees C prior to their use. All drugs and investigational agents were tested over a range starting from a high concentration at or near the clinical Cmax and decreasing in half-log increments. If the clinical Cmax for an agent had not been determined, the highest concentration tested was 10 microM, except for SN-38, which was tested at a high concentration of 1 microM.
Cell Culture. All cells were maintained in an incubator at 37 degrees C and 5% CO2 with 95% humidity. The PDC lines were cultured according to standard operating procedures established by the NCI PDMR (https://pdmr.cancer.gov). Table 3 of the manuscript, lists the cell lines along with the number of the three cell types plated to form the mct-spheroids and media for tumor cell growth. After thawing, all PDC lines, except 997537-175-T-J1-PDC and 415267-285-R-J2-PDC, were cultured in Matrigel-coated flasks prepared with a working solution of 1X Ham's F-12 nutrient mix, without supplementation (Thermo Fisher Scientific, cat. 11765054), 100 U/mL penicillin-streptomycin (Thermo Fisher Scientific, cat. 15140122), and 2.5% Matrigel (Corning Inc., Corning, NY, cat. 354248) for the first three passages. The two PDC lines 997537-175-T-J1-PDC and 415267-285-R-J2-PDC were cultured on uncoated flasks. The 857933-349-R-J2-PDC line was cultured in 6C/Colon 1B media containing advanced DMEM/F-12 (Thermo Fisher Scientific, cat. 12634028), 10 mM HEPES (Thermo Fisher Scientific, cat. 15630080), 1X GlutaMAX supplement (Thermo Fisher Scientific, cat. 35050061), 0.1 mg/mL primocin (InvivoGen, San Diego, CA, cat. ant-pm-2), 10% defined fetal bovine serum, heat inactivated (HyClone Laboratories Inc., Logan, UT, cat. SH30070.03HI), 50% L-WRN conditioned media (ATCC, cat. CRL-3276), 1.25 mM N-Acetyl-L-cysteine (Sigma-Aldrich, cat. A9165), 10 mM nicotinamide (Sigma-Aldrich, cat. N0636), 1X B-27 supplement (Thermo Fisher Scientific, cat. 17504044), 1X N-2 supplement (Thermo Fisher Scientific, cat. […]

[1] = second compound 0.0316 µM, first compound 0.0316 µM
[2] = second compound 0.0316 µM, first compound 0.1 µM
[3] = second compound 0.0316 µM, first compound 0.316 µM
[4] = second compound 0.0316 µM, first compound 1 µM
[5] = second compound 0.1 µM, first compound 0.0316 µM
[6] = second compound 0.1 µM, first compound 0.1 µM
[7] = second compound 0.1 µM, first compound 0.316 µM
[8] = second compound 0.1 µM, first compound 1 µM
[9] = second compound 0.316 µM, first compound 0.0316 µM
[10] = second compound 0.316 µM, first compound 0.1 µM
[11] = second compound 0.316 µM, first compound 0.316 µM
[12] = second compound 0.316 µM, first compound 1 µM
[13] = second compound 1 µM, first compound 0.0316 µM
[14] = second compound 1 µM, first compound 0.1 µM
[15] = second compound 1 µM, first compound 0.316 µM
[16] = second compound 1 µM, first compound 1 µM
[17] = second compound 3.16 µM, first compound 0.0316 µM
[18] = second compound 3.16 µM, first compound 0.1 µM
[19] = second compound 3.16 µM, first compound 0.316 µM
[20] = second compound 3.16 µM, first compound 1 µM
[21] = second compound 10 µM, first compound 0.0316 µM
[22] = second compound 10 µM, first compound 0.1 µM
[23] = second compound 10 µM, first compound 0.316 µM
[24] = second compound 10 µM, first compound 1 µM
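Further: spheroids exposed to compounds for seven days.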
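Wherever viability, T/C is given: 100% = DMSO vehicle control viability.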

**Q.** With `CCc1c2c(nc3ccc(O)cc13)-c1cc3c(c(=O)n1C2)COC(=O)[C@]3(O)CC` + Cc1cccc(N(C)C(=O)C2C(O)CCN2c2nc(C)cc(C(F)(F)F)c2C#N)c1 as the compound, how does the IC50 (second compound 0.0316 µM) read?
**A.** 18.7 nM

**Q.** And the IC50 (second compound 0.1 µM)?
**A.** 24.7 nM

**Q.** What about the IC50 (second compound 0.316 µM) of the same compound?
**A.** 24.3 nM

**Q.** What about the IC50 (second compound 1 µM) of the same compound?
**A.** 23.8 nM

**Q.** And the IC50 (second compound 3.16 µM)?
**A.** 22.1 nM

**Q.** What about the IC50 (second compound 10 µM) of the same compound?
**A.** 16.8 nM

**Q.** What about the viability, T/C (second compound 0.0316 µM, first compound 0.00316 µM) of the same compound?
**A.** 106%

**Q.** And the viability, T/C (second compound 0.0316 µM, first compound 0.01 µM)?
**A.** 64.3%

**Q.** What about the viability, T/C [1] of the same compound?
**A.** 39.6%

**Q.** And the viability, T/C [2]?
**A.** 17.9%

**Q.** And the viability, T/C [3]?
**A.** 11.2%

**Q.** And the viability, T/C [4]?
**A.** 6.74%

**Q.** What about the viability, T/C (second compound 0.1 µM, first compound 0.00316 µM) of the same compound?
**A.** 102%

**Q.** What about the viability, T/C (second compound 0.1 µM, first compound 0.01 µM) of the same compound?
**A.** 81.4%

**Q.** What about the viability, T/C [5] of the same compound?
**A.** 39.9%

**Q.** And the viability, T/C [6]?
**A.** 19.9%

**Q.** And the viability, T/C [7]?
**A.** 10.1%

**Q.** What about the viability, T/C [8] of the same compound?
**A.** 8.21%

**Q.** And the viability, T/C (second compound 0.316 µM, first compound 0.00316 µM)?
**A.** 99.1%

**Q.** What about the viability, T/C (second compound 0.316 µM, first compound 0.01 µM) of the same compound?
**A.** 87.7%

**Q.** And the viability, T/C [9]?
**A.** 38.2%

**Q.** And the viability, T/C [10]?
**A.** 15.9%

**Q.** And the viability, T/C [11]?
**A.** 11.5%

**Q.** And the viability, T/C [12]?
**A.** 6.74%

**Q.** What about the viability, T/C (second compound 1 µM, first compound 0.00316 µM) of the same compound?
**A.** 101%

**Q.** And the viability, T/C (second compound 1 µM, first compound 0.01 µM)?
**A.** 78.2%

**Q.** What about the viability, T/C [13] of the same compound?
**A.** 40.7%

**Q.** What about the viability, T/C [14] of the same compound?
**A.** 17.3%

**Q.** And the viability, T/C [15]?
**A.** 9.53%

**Q.** What about the viability, T/C [16] of the same compound?
**A.** 8.73%

**Q.** What about the viability, T/C (second compound 3.16 µM, first compound 0.00316 µM) of the same compound?
**A.** 86.1%

**Q.** And the viability, T/C (second compound 3.16 µM, first compound 0.01 µM)?
**A.** 73.7%

**Q.** And the viability, T/C [17]?
**A.** 39.1%

**Q.** And the viability, T/C [18]?
**A.** 16.7%

**Q.** What about the viability, T/C [19] of the same compound?
**A.** 13.6%

**Q.** And the viability, T/C [20]?
**A.** 8.63%

**Q.** What about the viability, T/C (second compound 10 µM, first compound 0.00316 µM) of the same compound?
**A.** 92.2%

**Q.** What about the viability, T/C (second compound 10 µM, first compound 0.01 µM) of the same compound?
**A.** 65.1%

**Q.** What about the viability, T/C [21] of the same compound?
**A.** 31.2%

**Q.** And the viability, T/C [22]?
**A.** 17%

**Q.** What about the viability, T/C [23] of the same compound?
**A.** 15.2%

**Q.** What about the viability, T/C [24] of the same compound?
**A.** 9.83%

**Q.** What does the source list for `CC(C)n1c(=O)n(C)c2cnc3cc(F)c(-c4ccc(OCCCN5CCCCC5)nc4)cc3c21` + Nc1ccc(C#CCN(C(=O)Cc2ncc(C(F)(F)F)cc2C(F)(F)F)c2ccc(F)cc2)nn1?
**A.** IC50 (second compound 0.0316 µM): > 10000 nM; IC50 (second compound 0.1 µM): > 10000 nM; IC50 (second compound 0.316 µM): > 10000 nM; IC50 (second compound 1 µM): > 10000 nM; IC50 (second compound 3.16 µM): > 10000 nM; IC50 (second compound 10 µM): > 10000 nM; viability, T/C [1]: 87.3%; viability, T/C [2]: 106%; viability, T/C [3]: 95.4%; viability, T/C [4]: 97.9%; viability, T/C (second compound 0.0316 µM, first compound 3.16 µM): 83.6%; viability, T/C (second compound 0.0316 µM, first compound 10 µM): 80.7%; viability, T/C [5]: 101%; viability, T/C [6]: 107%; viability, T/C [7]: 94.9%; viability, T/C [8]: 92.2%; viability, T/C (second compound 0.1 µM, first compound 3.16 µM): 92.6%; viability, T/C (second compound 0.1 µM, first compound 10 µM): 83.7%; viability, T/C [9]: 94.8%; viability, T/C [10]: 94.7%; viability, T/C [11]: 89.4%; viability, T/C [12]: 96.8%; viability, T/C (second compound 0.316 µM, first compound 3.16 µM): 103%; viability, T/C (second compound 0.316 µM, first compound 10 µM): 80.9%; viability, T/C [13]: 104%; viability, T/C [14]: 101%; viability, T/C [15]: 88%; viability, T/C [16]: 88.9%; viability, T/C (second compound 1 µM, first compound 3.16 µM): 93.7%; viability, T/C (second compound 1 µM, first compound 10 µM): 86.9%; viability, T/C [17]: 99%; viability, T/C [18]: 98.3%; viability, T/C [19]: 99.5%; viability, T/C [20]: 84.2%; viability, T/C (second compound 3.16 µM, first compound 3.16 µM): 95.3%; viability, T/C (second compound 3.16 µM, first compound 10 µM): 87.8%; viability, T/C [21]: 105%; viability, T/C [22]: 95.5%; viability, T/C [23]: 98.4%; viability, T/C [24]: 96.6%; viability, T/C (second compound 10 µM, first compound 3.16 µM): 97.9%; viability, T/C (second compound 10 µM, first compound 10 µM): 84.1%
